Values of other authors as cited in article PMC4474874, “Effect of JAK Inhibitors on Release of CXCL9, CXCL10 and CXCL11 from Human Airway Epithelial Cells” (PLoS ONE, 2015).
Where two headings read alike, the source gives them in different places.

Columns and labels:
[1] = test system: GSK3b; design: method as in PMID 18094329; conditions: inactive or IC50 >30μM; read-out: IC50 against GSK3b; cited from earlier work
[2] = test system: FGFR1; design: method as in PMID 18094329; conditions: inactive or IC50 >30μM; read-out: IC50 against FGFR1; cited from earlier work
[3] = test system: ~30 other kinase pathways; design: method as in PMID 18094329; conditions: including AKT, GSK3β, IKKβ, IKKi, MAPK1, MAPKAP-K2, MASK, MET, and ROCK1; cited from earlier work
[4] = test system: JAK/JAK3; design: method as in PMID 18094329; conditions: cellular assay; cited from earlier work
[5] = test system: CHK1; design: method as in PMID 18094329; conditions: inactive or IC50 >30μM; read-out: IC50 against CHK1; cited from earlier work
[6] = test system: TrkA; design: method as in PMID 18094329; conditions: inactive or IC50 >30μM; read-out: IC50 against TrkA; cited from earlier work
[7] = test system: JAK2; design: method as in PMID 18094329; conditions: cellular assay; cited from earlier work
[8] = test system: MAPKAP-K2; design: method as in PMID 18094329; conditions: inactive or IC50 >30μM; read-out: IC50 against MAPKAP-K2; cited from earlier work
[9] = test system: chronic lymphocytic leukaemia cells; design: method as in PMID 20716767; conditions: cited from earlier work
[10] = test system: PDK1; design: method as in PMID 18094329; conditions: inactive or IC50 >30μM; read-out: IC50 against PDK1; cited from earlier work
[11] = test system: IKKi; design: method as in PMID 18094329; conditions: inactive or IC50 >30μM; read-out: IC50 against IKKi; cited from earlier work
[12] = test system: cdk2; design: method as in PMID 18094329; conditions: inactive or IC50 >30μM; read-out: IC50 against cdk2; cited from earlier work
[13] = test system: INSR; design: method as in PMID 18094329; conditions: inactive or IC50 >30μM; read-out: IC50 against INSR; cited from earlier work
[14] = test system: IKKb; design: method as in PMID 18094329; conditions: inactive or IC50 >30μM; read-out: IC50 against IKKb; cited from earlier work
[15] = test system: MET; design: method as in PMID 18094329; conditions: inactive or IC50 >30μM; read-out: IC50 against MET; cited from earlier work
[16] = test system: TaoK3; design: method as in PMID 18094329; conditions: inactive or IC50 >30μM; read-out: IC50 against TaoK3; cited from earlier work
[17] = test system: AKT; design: method as in PMID 18094329; conditions: inactive or IC50 >30μM; read-out: IC50 against AKT; cited from earlier work
[18] = test system: GSK3β; design: method as in Coe et al., 25; conditions: ATP at the Km; ref Coe et al., 25; cited from earlier work
[19] = test system: human T lymphocytes (JAK1/3); design: method as in Coe et al., 25; conditions: ref Coe et al., 25; read-out: IC50 IL-2-induced IFNγ release by human T lymphocytes (JAK1/3); cited from earlier work
[20] = test system: TrkA; design: method as in Coe et al., 25; conditions: ATP at the Km; ref Coe et al., 25; cited from earlier work
[21] = test system: JAK3; design: method as in Coe et al., 25; conditions: ref Coe et al., 25, cited from earlier work
[22] = target: Protein kinase C β2; conditions: read-out: IC50 Protein kinase C β2 Km; ATP at the Km; ref Coe et al., 25; cited from earlier work
[23] = test system: human T lymphocytes (JAK1/2); design: method as in Coe et al., 25; conditions: ref Coe et al., 25; read-out: IC50 IL-12-induced IFNγ release by human T lymphocytes (JAK1/2); cited from earlier work
[24] = test system: TYK2; design: method as in Coe et al., 25; conditions: ref Coe et al., 25, cited from earlier work
[25] = test system: JAK1; design: method as in Coe et al., 25; conditions: ref Coe et al., 25, cited from earlier work
[26] = test system: JAK2; design: method as in Coe et al., 25; conditions: ref Coe et al., 25, cited from earlier work
[27] = test system: TAOK2; design: method as in Coe et al., 25; conditions: ATP at the Km; ref Coe et al., 25; cited from earlier work
[28] = test system: MST4; design: method as in Coe et al., 25; conditions: ATP at the Km; ref Coe et al., 25; cited from earlier work
[29] = test system: MAP4K4; design: method as in Coe et al., 25; conditions: ATP at the Km; ref Coe et al., 25; cited from earlier work

SMILES: C[C@@H]1CCN(C(=O)N2CCCC2)C[C@@H]1N(C)c1ncnc2[nH]ccc12 [PF956980]
- IC50 [1]: > 30000 nM
- IC50 [2]: > 30000 nM
- effect on ~30 other kinase pathways [3]: no effect
- IC50 [4]: 22 nM
- IC50 [5]: > 30000 nM
- IC50 [6]: > 30000 nM
- IC50 [7]: 188 nM
- IC50 [8]: > 30000 nM
- concentration effective against IL-4-induced cytotoxic resistance [9]: ~ 0.3 μM
- IC50 [10]: > 30000 nM
- IC50 [11]: > 30000 nM
- IC50 [12]: > 30000 nM
- IC50 [13]: > 30000 nM
- IC50 [14]: > 30000 nM
- IC50 [15]: > 30000 nM
- IC50 [16]: > 30000 nM
- IC50 [17]: > 30000 nM

SMILES: CCc1cc(O)ccc1-c1ccc2c(-c3nc4ccccc4[nH]3)n[nH]c2c1 [PF1367550, 4-(3-(1H-benzo[d]imidazol-2-yl)-1H-indazol-6-yl)-3-ethylphenol]
- IC50 [18]: 617 nM
- IC50 [19]: 14 nM
- IC50 [20]: 227 nM
- IC50 ([21]; 1mM ATP, read-out: IC50 JAK3 1 mM): 14 nM
- IC50 ([21]; ATP at the Km, read-out: IC50 JAK3 Km): 1 nM
- IC50 [22]: 665 nM
- IC50 [23]: 45 nM
- IC50 ([24]; 1mM ATP, read-out: IC50 TYK2 1 mM): 8.4 nM
- IC50 ([24]; ATP at the Km, read-out: IC50 TYK2 Km): 0.8 nM
- IC50 ([25]; 1mM ATP, read-out: IC50 JAK1 1 mM): 0.4 nM
- IC50 ([25]; ATP at the Km, read-out: IC50 JAK1 Km): 0.8 nM
- IC50 ([26]; 1mM ATP, read-out: IC50 JAK2 1 mM): 1.3 nM
- IC50 ([26]; ATP at the Km, read-out: IC50 JAK2 Km): 1 nM
- IC50 [27]: 781 nM
- IC50 [28]: 692 nM
- IC50 [29]: 60 nM
